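Protocol summary: plate cells (96-well), add compound at 5 concentrations, incubate 48 h, interpolate endpoints linearly. GI50 marks 50% less growth.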 Active and inactive are the calls of the source. Rule as the data show it: active = GI50 up to about 1.1 µM and inactive = higher.
Assays:
Test in all cases: NCI anticancer screen, dose series, 48 h
[1] = test system: NCI-H226
[2] = test system: CAKI-1
[3] = test system: T47D
[4] = test system: SK-MEL-5
[5] = test system: NCI/ADR-RES
[6] = test system: LOX IMVI
[7] = test system: NCI-H522
[8] = test system: OVCAR-3
[9] = test system: UACC-62
[10] = test system: MDA-MB-435
[11] = test system: A549
[12] = test system: HL-60
[13] = test system: Malme-3M
[14] = test system: PC-3
[15] = test system: COLO 205
[16] = test system: SNB-19
[17] = test system: SNB-75
[18] = test system: BT-549
[19] = test system: A498

| SMILES | GI50 [1] | GI50 [2] | GI50 [3] | GI50 [4] | GI50 [5] | GI50 [6] | GI50 [7] | GI50 [8] | GI50 [9] | GI50 [10] | GI50 [11] | GI50 [12] | GI50 [13] | GI50 [14] | GI50 [15] | GI50 [16] | GI50 [17] | GI50 [18] | GI50 [19] |
| --- | --- | --- | --- | --- | --- | --- | --- | --- | --- | --- | --- | --- | --- | --- | --- | --- | --- | --- | --- |
| C=C(C)C1Cc2cc(C(C)=O)ccc2O1 (configuration not stated) | > 100 µM (inactive) | > 100 µM (inactive) | > 100 µM (inactive) | > 100 µM (inactive) | > 100 µM (inactive) | > 100 µM (inactive) | > 100 µM (inactive) | > 100 µM (inactive) | > 100 µM (inactive) | > 100 µM (inactive) | > 100 µM (inactive) | > 100 µM (inactive) | > 100 µM (inactive) | > 100 µM (inactive) | > 100 µM (inactive) | > 100 µM (inactive) | > 100 µM (inactive) | > 100 µM (inactive) |  |
| CCOC(=O)c1cc(C2(OC)CCN(Cc3ccccc3)C2=O)c(-c2cc(C)no2)[nH]1 (configuration not stated) |  | > 100 µM (inactive) | > 100 µM (inactive) | 97.1 µM (inactive) | > 100 µM (inactive) |  | > 100 µM (inactive) | > 100 µM (inactive) | > 100 µM (inactive) | > 100 µM (inactive) | > 100 µM (inactive) |  | > 100 µM (inactive) | > 100 µM (inactive) | > 100 µM (inactive) | > 100 µM (inactive) | > 100 µM (inactive) | > 100 µM (inactive) | > 100 µM (inactive) |
| COC(=O)CCC1=C(CC(=O)OC)C(C)(OC)N/C1=N/C(=O)OCc1ccccc1 (configuration not stated) | > 100 µM (inactive) | > 100 µM (inactive) | > 100 µM (inactive) | > 100 µM (inactive) | > 100 µM (inactive) | > 100 µM (inactive) | > 100 µM (inactive) |  | > 100 µM (inactive) | > 100 µM (inactive) | > 100 µM (inactive) |  | > 100 µM (inactive) | > 100 µM (inactive) | > 100 µM (inactive) | > 100 µM (inactive) | > 100 µM (inactive) | > 100 µM (inactive) | > 100 µM (inactive) |
| CCCCNC(=O)OCCN=c1c2ccccc2ccc2ccccc12 | > 100 µM (inactive) | > 100 µM (inactive) | 75 µM (inactive) | > 100 µM (inactive) | > 100 µM (inactive) | > 100 µM (inactive) |  | > 100 µM (inactive) | > 100 µM (inactive) | > 100 µM (inactive) | > 100 µM (inactive) | > 100 µM (inactive) | > 100 µM (inactive) | > 100 µM (inactive) | > 100 µM (inactive) | > 100 µM (inactive) | > 100 µM (inactive) | > 100 µM (inactive) |  |
| O=[N+]([O-])c1cccc(/N=N/c2c(O)ccc3ccccc23)c1 |  | > 100 µM (inactive) | > 100 µM (inactive) | 75.7 µM (inactive) | 70 µM (inactive) | > 100 µM (inactive) | 45.1 µM (inactive) | > 10 µM (inactive) | 41.4 µM (inactive) | 39.1 µM (inactive) | > 100 µM (inactive) |  | 63.1 µM (inactive) | 55 µM (inactive) | > 100 µM (inactive) | 25.4 µM (inactive) | 91 µM (inactive) | 43.8 µM (inactive) | > 100 µM (inactive) |
| Cc1ccc(C(=O)Nc2ccc(S(=O)(=O)O)c3cc(S(=O)(=O)O)cc(S(=O)(=O)O)c23)cc1NC(=O)c1cccc(N)c1 | > 100 µM (inactive) | > 100 µM (inactive) | > 100 µM (inactive) | > 100 µM (inactive) | > 100 µM (inactive) |  | > 100 µM (inactive) | > 100 µM (inactive) | > 100 µM (inactive) |  | > 100 µM (inactive) | > 100 µM (inactive) | 1.05 µM (active) | > 100 µM (inactive) | > 100 µM (inactive) | > 100 µM (inactive) | > 100 µM (inactive) | > 100 µM (inactive) | > 100 µM (inactive) |

— ChEMBL document CHEMBL1201862, “PubChem BioAssay data set” (2004)
